Source: PMC4234510, “Plasmodium falciparum UvrD activities are downregulated by DNA-interacting compounds and its dsRNA inhibits malaria parasite growth” (BMC Biochemistry, 2014)
Where two headings read alike, the source gives them in different places. Starred links: 1 amine or outer side, 2 acyl side, 3 side chain; linkers in the order of their positions; H or OH if unused. Positions of bridges follow the written chain, without caps; N, C: chain ends. Non-standard residues stand in square brackets, D forms with d. Residues, ends and D or L forms follow the SMILES beside them. Chains are numbered I, II in the order given. Actinocin(9to1) = Cc1c2oc3c(C)ccc(C(=O)[*:1])c3nc-2c(C(=O)[*:2])c(N)c1=O; NMeV = CN[C@H](C(=O)O)C(C)C; Sar = CNCC(=O)O

Columns and labels:
PfDH60 [1] = conditions: Table 2; no unit and no reference given; read-out: inhibitory potential for helicase activity, PfDH60; cited from earlier work
PfH45 [2] = conditions: comparison column of Table 1; no unit and no reference given; read-out: inhibitory potential for ATPase activity, PfH45; cited from earlier work
PfH45 [3] = conditions: Table 2; no unit and no reference given; read-out: inhibitory potential for helicase activity, PfH45; cited from earlier work
PfD66/PfDDX19 [4] = conditions: Table 2; no unit and no reference given; read-out: inhibitory potential for helicase activity, PfD66/PfDDX19; cited from earlier work
PfUDN [5] = experiment: ssDNA-dependent ATPase assay of PfUDN; assay type: biochemical, Plasmodium falciparum; conditions: for effect on ssDNA dependent ATPase activity of PfUDN: compound 20 μM, PfUDN 100 nM, reaction mixture (DNA) preincubated 15 min with compound, Figure 1A; for IC50: inhibitor 0.2-5.0 μM (ciprofloxacin 0.5-30 μM), read-out: IC50, inhibition of ssDNA-dependent ATPase activity of PfUDN
Protocol: Standard protocol of ATPase assay was followed as described in the previous report. The hydrolysis of ATP catalyzed by PfUDN was assayed by measuring the formation of Pi from [γ-^32P] ATP. The reaction mixture of 10 μl contained [γ-^32P] ATP (specific activity 222 TBq.mmol^-1) and cold ATP (1 mM), ATPase buffer (20 mM Tris-HCl, pH 8.0, 8 mM DTT, 1.0 mM MgCl2, 20 mM KCl and 16 μg/ml BSA), purified PfUDN and 50 ng or 100 ng of M13 mp19 ssDNA. The reaction mixtures were incubated at 37°C for 60 min. This was followed by thin layer chromatography (TLC), and the quantitation was done using Alpha Imager-EP/Image-J software ( http://rsbweb.nih.gov/ij/). In order to study the effect of various compounds on ssDNA-dependent ATPase activity, different compounds were added into the reaction mixture prior to the addition of the PfUDN. In another set of experiment, PfUDN was pre-incubated (15 min) with these compounds in order to obtain the insight of inhibitory mechanism. All the experiments were performed at least two times and quantification data was used to calculate the standard deviation using Microsoft Excel 2010 and mean value was used to prepare the graph.

PfD66/PfDDX19 [6] = conditions: comparison column of Table 1; no unit and no reference given; read-out: inhibitory potential for ATPase activity, PfD66/PfDDX19; cited from earlier work
PfUDN [7] = experiment: DNA helicase (unwinding) assay of PfUDN; assay type: biochemical, Plasmodium falciparum; conditions: for effect on DNA unwinding (helicase) activity of PfUDN: compound 20 μM, partial duplex substrate, Figure 3; for IC50: inhibitor 0.5-5.0 μM, unit printed in text b27, not in table or picture labels, read-out: IC50, inhibition of helicase (DNA unwinding) activity of PfUDN; for effect on helicase activity of PfUDN at lower concentration: upto 5 μM concentration tested (data not shown)
Protocol: The specially designed partial duplex substrate consisted of a ^32P-labelled 47-mer DNA oligodeoxynucleotide annealed to M13mp19 phage ssDNA. This oligodeoxynucleotide of the nucleotide sequence 5'- (T)15[…](T)15-3' contains 15 base-pairs of non-complementary region (T)15 at both the 5’ and 3’ ends. Oligodeoxynucleotide was labeled at 5′-end with T4 polynucleotide kinase (PNK) (5U) (New England Biolabs) and 1.85 MBq of [γ-^32P] ATP (specific activity 222 TBq/mmol) at 37°C for one hour and then annealed using standard annealing buffer (20 mM Tris-HCl, pH 7.5, 10 mM MgCl2, 100 mM NaCl, 1 mM DTT) with 0.5 μg of single-stranded circular M13mp19 (+) phage DNA by heating at 95°C for 1 min and then transferring immediately to 65°C for 2 min and then slow cooling to room temperature. Using gel filtration through a Sepharose 4B column (Pharmacia, Sweden) the non-hybridized oligodeoxynucleotide was removed. The reaction volume of 10 μl containing the ^32P-labeled helicase substrate (1000 cpm/10 μl) in appropriate buffer (20 mMTris-HCl, pH 8.0, 8 mM DTT, 1.0 mM MgCl2, 20 mMKCl and 16 μg/ml BSA) and PfUDN was incubated at 37°C for 60 min. The substrate and products were separated by electrophoresis on a nondenaturing 12% PAGE and the gel was exposed to hyper film for autoradiography or scanned on phosphoimager. In order to study the effect of DNA-interacting compounds on helicase activity, different compounds were added to the helicase reaction mixture prior to the addition of the PfUDN helicase. All the experiments were performed in duplicate and quantitation of both the substrate and unwound DNA bands was done using AlphaImager-EP/Image-J software ( http://rsbweb.nih.gov/ij/). Quantification data was used to calculate the standard deviation using Microsoft Excel 2010 and mean value was used to prepare the graph.

PfDH60 [8] = conditions: comparison column of Table 1; no unit and no reference given; read-out: inhibitory potential for ATPase activity, PfDH60; cited from earlier work
malaria parasite = conditions: cited from earlier work
[9] = unit printed in text b20, not in table or picture labels

SMILES: Cn1cc(NC(=O)c2cc(NC(=O)CN=C(N)N)cn2C)cc1C(=O)NCCC(=N)N [Netropsin, netropsin]
- IC50 (PfDH60 [1]): 1200 nM
- IC50 (PfH45 [2]): 1500 nM
- IC50 (PfH45 [3]): 500 nM
- IC50 (PfD66/PfDDX19 [4]): 500 nM
- effect on ssDNA dependent ATPase activity of PfUDN (PfUDN [5]): top four inhibitors
- IC50 (PfUDN [5]; [9]): 3100 nM
- IC50 (PfD66/PfDDX19 [6]): 1000 nM
- effect on DNA unwinding (helicase) activity of PfUDN (PfUDN [7]): inhibit the DNA unwinding activity of PfUDN effectively
- IC50 (PfUDN [7]): 4700 nM

SMILES: CO[C@@H]1[C@@H](OC(N)=O)[C@@H](O)[C@H](Oc2ccc3c(O)c(NC(=O)c4ccc(O)c(CC=C(C)C)c4)c(=O)oc3c2C)OC1(C)C [novobiocin]
- effect on ssDNA dependent ATPase activity of PfUDN (PfUDN [5]): not able to considerably inhibit
- effect on DNA unwinding (helicase) activity of PfUDN (PfUDN [7]): not able to considerably inhibit

SMILES: O=c1c(O)c(-c2ccc(O)cc2O)oc2cc(O)cc(O)c12 [morin]
- effect on ssDNA dependent ATPase activity of PfUDN (PfUDN [5]): weakly inhibit
- effect on DNA unwinding (helicase) activity of PfUDN (PfUDN [7]): not able to considerably inhibit

SMILES: Cc1c2oc3c(C)ccc(C(=O)N[C@@H]4C(=O)N[C@H](C(C)C)C(=O)N5CCC[C@H]5C(=O)N(C)CC(=O)N(C)[C@@H](C(C)C)C(=O)O[C@@H]4C)c3nc-2c(C(=O)N[C@@H]2C(=O)N[C@H](C(C)C)C(=O)N3CCC[C@H]3C(=O)N(C)CC(=O)N(C)[C@@H](C(C)C)C(=O)O[C@@H]2C)c(N)c1=O [actinomycin] (I: T[dV]P[Sar][NMeV] / II: T[dV]P[Sar][NMeV]; ester I:1-I:C, II:1-II:C; linker I:N-II:N via Actinocin(9to1))
- effect on ssDNA dependent ATPase activity of PfUDN (PfUDN [5]): not able to considerably inhibit
- effect on DNA unwinding (helicase) activity of PfUDN (PfUDN [7]): not able to considerably inhibit

SMILES: O=P1(N(CCCl)CCCl)NCCCO1 (centres unmarked) [cyclophosphamide]
- effect on ssDNA dependent ATPase activity of PfUDN (PfUDN [5]): not able to considerably inhibit
- effect on DNA unwinding (helicase) activity of PfUDN (PfUDN [7]): not able to considerably inhibit

SMILES: COC(=O)[C@@H]1c2cc3c(c(O)c2[C@@H](O[C@@H]2O[C@@H](C)[C@H](OC)[C@@](C)(OC)[C@H]2OC)C[C@]1(C)O)C(=O)c1c(O)cc2c(c1C3=O)O[C@@H]1O[C@@]2(C)[C@H](O)[C@@H](N(C)C)[C@@H]1O [Nogalamycin, nogalamycin]
- IC50 (PfDH60 [1]): 2000 nM
- IC50 (PfH45 [2]): 800 nM
- IC50 (PfDH60 [8]): 500 nM
- IC50 (PfH45 [3]): 500 nM
- IC50 (PfD66/PfDDX19 [4]): 5000 nM
- effect on ssDNA dependent ATPase activity of PfUDN (PfUDN [5]): top four inhibitors
- IC50 (PfUDN [5]; [9]): 3300 nM
- effect on DNA unwinding (helicase) activity of PfUDN (PfUDN [7]): inhibit the DNA unwinding activity of PfUDN effectively
- IC50 (PfUDN [7]): 3500 nM

SMILES: N.N.[Cl][Pt][Cl] [cisplatin]
- effect on ssDNA dependent ATPase activity of PfUDN (PfUDN [5]): not able to considerably inhibit
- effect on DNA unwinding (helicase) activity of PfUDN (PfUDN [7]): not able to considerably inhibit

SMILES: CC[n+]1c(-c2ccccc2)c2cc(N)ccc2c2ccc(N)cc21 [Ethidium bromide, ethidium bromide]
- IC50 (PfDH60 [1]): 1500 nM
- IC50 (PfH45 [2]): 1500 nM
- IC50 (PfDH60 [8]): 2500 nM
- IC50 (PfH45 [3]): 1000 nM
- IC50 (PfD66/PfDDX19 [4]): 1000 nM
- effect on ssDNA dependent ATPase activity of PfUDN (PfUDN [5]): top four inhibitors
- IC50 (PfD66/PfDDX19 [6]): 1500 nM
- effect on DNA unwinding (helicase) activity of PfUDN (PfUDN [7]): inhibit the DNA unwinding activity of PfUDN effectively
- IC50 (PfUDN [7]): 4800 nM

SMILES: O=C(O)c1cn(C2CC2)c2cc(N3CCNCC3)c(F)cc2c1=O [Ciprofloxacin, ciprofloxacin]
- inhibition of malaria parasite growth (malaria parasite): found effective
- effect on ssDNA dependent ATPase activity of PfUDN (PfUDN [5]): weakly inhibit
- IC50 (PfUDN [5]; unit printed in text b20, not in table or picture labels, listed as ciprofloxacin): ~10000 nM
- IC50 (PfUDN [5]; [9]): 9900 nM
- effect on DNA unwinding (helicase) activity of PfUDN (PfUDN [7]): inhibit the DNA unwinding activity of PfUDN effectively
- effect on helicase activity of PfUDN at lower concentration (PfUDN [7]): failed to show appreciable inhibition

SMILES: O=c1c(-c2ccc(O)cc2)coc2cc(O)cc(O)c12 [genistein]
- effect on ssDNA dependent ATPase activity of PfUDN (PfUDN [5]): not able to considerably inhibit
- effect on DNA unwinding (helicase) activity of PfUDN (PfUDN [7]): not able to considerably inhibit

SMILES: COc1cccc2c1C(=O)c1c(O)c3c(c(O)c1C2=O)C[C@@](O)(C(C)=O)C[C@@H]3O[C@H]1C[C@H](N)[C@H](O)[C@H](C)O1 [Daunorubicin, daunorubicin]
- IC50 (PfDH60 [1]): 300 nM
- IC50 (PfH45 [2]): 5000 nM
- IC50 (PfH45 [3]): 1500 nM
- effect on ssDNA dependent ATPase activity of PfUDN (PfUDN [5]): top four inhibitors
- IC50 (PfUDN [5]): ~3000 nM
- effect on DNA unwinding (helicase) activity of PfUDN (PfUDN [7]): inhibit the DNA unwinding activity of PfUDN effectively
- IC50 (PfUDN [7]; listed as daunorubicin): ~3000 nM
- IC50 (PfUDN [7]): 3000 nM

SMILES: N=C(N)c1ccc(-c2cc3ccc(C(=N)N)cc3[nH]2)cc1 [DAPI]
- effect on ssDNA dependent ATPase activity of PfUDN (PfUDN [5]): inhibit

SMILES: COc1cc([C@@H]2c3cc4c(cc3[C@@H](O[C@@H]3O[C@@H]5CO[C@@H](C)O[C@H]5[C@H](O)[C@H]3O)[C@H]3COC(=O)[C@H]23)OCO4)cc(OC)c1O [etoposide]
- effect on ssDNA dependent ATPase activity of PfUDN (PfUDN [5]): not able to considerably inhibit
- effect on DNA unwinding (helicase) activity of PfUDN (PfUDN [7]): blocks the helicase activity appreciably
- effect on helicase activity of PfUDN at lower concentration (PfUDN [7]): failed to show appreciable inhibition

SMILES: CC[C@@]1(O)C(=O)OCc2c1cc1n(c2=O)Cc2cc3ccccc3nc2-1 [camptothecin]
- effect on ssDNA dependent ATPase activity of PfUDN (PfUDN [5]): not able to considerably inhibit
- effect on DNA unwinding (helicase) activity of PfUDN (PfUDN [7]): not able to considerably inhibit
